In US11129827B2 (priority 2017, dated 2021):
Like-named read-outs stand apart in the source and are kept apart here.

How the values were obtained:
FAAH = FAAH (Homo sapiens (Human), UniProt O00519); experiment: biochemical; settings: for inhibition at 1 µM: read-out: FAAH (human) % inh. 1 μM
MAGL = MAGL (Homo sapiens (Human), UniProt Q99685); experiment: biochemical; settings: for inhibition at 1 µM: read-out: MAGL (human) % inh. 1 μM

SMILES: O=C(Oc1cncc(C(F)(F)F)c1)N1CCC2(CC1)CC(Oc1cc(Cl)ccc1Cl)C2 [Example 27, 5-(Trifluoromethyl)pyridin-3-yl 2-(2,5-dichlorophenoxy)-7-azaspiro[3.5]nonane-7-carboxylate]
- inhibition at 1 µM (FAAH): > 75%
- inhibition at 1 µM (MAGL): > 75%

SMILES: O=C(Oc1cncc(C(F)(F)F)c1)N1CCC2(CC1)CN(Cc1cccc(Oc3cccc(Cl)c3)c1Cl)C2 [Example 40, 5-(Trifluoromethyl)pyridin-3-yl 2-(2-chloro-3-(3-chlorophenoxy)benzyl)-2,7-diazaspiro[3.5]nonane-7-carboxylate]
- inhibition at 1 µM (FAAH): > 75%
- IC50 (FAAH; read-out: FAAH (human) IC50): 100 to 1000 nM
- IC50 (MAGL): < 100 nM
- inhibition at 1 µM (MAGL): > 75%

SMILES: O=C(Oc1cncc(C(F)(F)F)c1)N1CCC2(CC1)CC(Oc1ccc(-c3ccccc3)cc1)C2 [Example 28, 5-(Trifluoromethyl)pyridin-3-yl 2-([1,1′-biphenyl]-4-yloxy)-7-azaspiro[3.5]nonane-7-carboxylate]
- inhibition at 1 µM (FAAH): > 75%
- IC50 (FAAH; read-out: FAAH (human) IC50): < 100 nM
- inhibition at 1 µM (MAGL): > 75%
- IC50 (MAGL; read-out: MAGL (human) IC50): < 100 nM

SMILES: NC(=O)c1cncc(OC(=O)N2CCC3(CC2)CN(Cc2cccc(Oc4ccc(Cl)cc4)c2)C3)c1 [Example 5, 5-Carbamoylpyridin-3-yl 2-(3-(4-chlorophenoxy)benzyl)-2,7-diazaspiro[3.5]nonane-7-carboxylate]
- inhibition at 1 µM (FAAH): > 75%
- IC50 (FAAH; read-out: FAAH (human) IC50): < 100 nM
- inhibition at 1 µM (MAGL): > 75%
- IC50 (MAGL; read-out: MAGL (human) IC50): < 100 nM

SMILES: CC(C)Oc1cc(CN2CCN(C(=O)Oc3cncc(C(N)=O)c3)[C@H](C)C2)ccc1Cl [Example 56, (R)-5-Carbamoylpyridin-3-yl 4-(4-chloro-3-isopropoxybenzyl)-2-methylpiperazine-1-carboxylate]
- inhibition at 1 µM (FAAH): > 75%
- IC50 (FAAH; read-out: FAAH (human) IC50): 100 to 1000 nM
- inhibition at 1 µM (MAGL): > 75%
- IC50 (MAGL; read-out: MAGL (human) IC50): 100 to 1000 nM

SMILES: Cc1ncc(C#N)cc1OC(=O)N1CCN(Cc2cccc(C(F)(F)F)c2C)C[C@H]1C [Example 21, 5-Cyano-2-methylpyridin-3-yl (R)-2-methyl-4-(2-methyl-3-(trifluoromethyl)benzyl)piperazine-1-carboxylate]
- inhibition at 1 µM (FAAH): > 75%
- IC50 (FAAH; read-out: FAAH (human) IC50): 100 to 1000 nM
- IC50 (MAGL): 1000 to 10000 nM
- inhibition at 1 µM (MAGL): 25 to 50%

SMILES: C[C@@H]1CN(Cc2cccc(C(F)(F)F)c2Cl)CCN1C(=O)Oc1cncc(C(N)=O)c1 [Example 66, (R)-5-Carbamoylpyridin-3-yl 4-(2-chloro-3-(trifluoromethyl)benzyl)-2-methylpiperazine-1-carboxylate]
- inhibition at 1 µM (FAAH): > 75%
- IC50 (FAAH; read-out: FAAH (human) IC50): < 100 nM
- inhibition at 1 µM (MAGL): > 75%
- IC50 (MAGL; read-out: MAGL (human) IC50): < 100 nM

SMILES: O=C(Oc1cncc(C(F)(F)F)c1)N1CCC2(CC1)CN(Cc1cccc(Oc3cccc(C(F)(F)F)n3)c1)C2 [Example 12, 5-(Trifluoromethyl)pyridin-3-yl 2-(3-((6-(trifluoromethyl)pyridin-2-yl)oxy)benzyl)-2,7-diazaspiro[3.5]nonane-7-carboxylate]
- inhibition at 1 µM (FAAH): 50 to 75%
- inhibition at 1 µM (MAGL): > 75%

SMILES: O=C(Oc1cncc(C(F)(F)F)c1)N1CCC2(CC1)CN(Cc1cccc(Oc3ccccc3Cl)c1Cl)C2 [Example 13, 5-(Trifluoromethyl)pyridin-3-yl 2-(2-chloro-3-(2-chlorophenoxy)benzyl)-2,7-diazaspiro[3.5]nonane-7-carboxylate]
- inhibition at 1 µM (FAAH): 50 to 75%
- inhibition at 1 µM (MAGL): > 75%

SMILES: O=C(Oc1cncc(C(F)(F)F)c1)N1CCC2(CC1)CN(Cc1ccc(Oc3cncnc3)cc1)C2 [Example 34, 5-(Trifluoromethyl)pyridin-3-yl 2-(4-(pyrimidin-5-yloxy)benzyl)-2,7-diazaspiro[3.5]nonane-7-carboxylate]
- IC50 (FAAH): 1000 to 10000 nM
- IC50 (MAGL; read-out: MAGL (human) IC50): 100 to 1000 nM

SMILES: Cc1c(CN2CCN(C(=O)Oc3cncc(C(N)=O)c3)[C@H](C)C2)cccc1C(F)(F)F [Example 58, (R)-5-Carbamoylpyridin-3-yl 2-methyl-4-(2-methyl-3-(trifluoromethyl)benzyl)piperazine-1-carboxylate]
- IC50 (FAAH): < 100 nM
- inhibition at 1 µM (FAAH): > 75%
- inhibition at 1 µM (MAGL): > 75%
- IC50 (MAGL; read-out: MAGL (human) IC50): 100 to 1000 nM

SMILES: O=C(Oc1cncc(C(F)(F)F)c1)N1CCC2(CC1)CC(Oc1cccc(COc3ccc(Cl)cc3)c1)C2 [Example 29, 5-(Trifluoromethyl)pyridin-3-yl 2-(3-((4-chlorophenoxy)methyl)phenoxy)-7-azaspiro[3.5]nonane-7-carboxylate]
- IC50 (FAAH): < 100 nM
- inhibition at 1 µM (FAAH): > 75%
- inhibition at 1 µM (MAGL): > 75%
- IC50 (MAGL; read-out: MAGL (human) IC50): 100 to 1000 nM

SMILES: CC(C)Oc1cccc(CN2CC3(CCN(C(=O)Oc4cncc(C(F)(F)F)c4)CC3)C2)c1 [Example 22, 5-(Trifluoromethyl)pyridin-3-yl 2-(3-isopropoxybenzyl)-2,7-diazaspiro[3.5]nonane-7-carboxylate]
- inhibition at 1 µM (FAAH): 50 to 75%
- inhibition at 1 µM (MAGL): 25 to 50%

SMILES: O=C(Oc1cncc(C(F)(F)F)c1)N1CCC2(CC1)CN(Cc1cccc(Oc3cc(Cl)cc(Cl)c3)c1)C2 [Example 35, 5-(Trifluoromethyl)pyridin-3-yl 2-(3-(3,5-dichlorophenoxy)benzyl)-2,7-diazaspiro[3.5]nonane-7-carboxylate]
- inhibition at 1 µM (FAAH): > 75%
- inhibition at 1 µM (MAGL): > 75%

SMILES: O=C(Oc1cncc(C(F)(F)F)c1)N1CCC2(CC1)CN(Cc1ccc(Oc3ccc(Cl)cc3)cc1)C2 [Example 30, 5-(Trifluoromethyl)pyridin-3-yl 2-(4-(4-chlorophenoxy)benzyl)-2,7-diazaspiro[3.5]nonane-7-carboxylate]
- IC50 (FAAH): 1000 to 10000 nM
- IC50 (MAGL; read-out: MAGL (human) IC50): 100 to 1000 nM

SMILES: Cc1c(OC(=O)N2CCN(Cc3cccc(C(F)(F)F)c3C)C[C@H]2C)cncc1C(N)=O [Example 82, 5-Carbamoyl-4-methylpyridin-3-yl (R)-2-methyl-4-(2-methyl-3-(trifluoromethyl)benzyl)piperazine-1-carboxylate]
- inhibition at 1 µM (FAAH): > 75%
- inhibition at 1 µM (MAGL): 0 to 25%

SMILES: O=C(Oc1cncc(C(F)(F)F)c1)N1CCC2(CC1)CN(Cc1cccc(Oc3cncnc3)c1)C2 [Example 11, 5-(Trifluoromethyl)pyridin-3-yl 2-(3-(pyrimidin-5-yloxy)benzyl)-2,7-diazaspiro[3.5]nonane-7-carboxylate]
- IC50 (FAAH; read-out: FAAH (human) IC50): 100 to 1000 nM
- IC50 (MAGL; read-out: MAGL (human) IC50): 100 to 1000 nM

SMILES: O=C(Oc1cncc(C(F)(F)F)c1)N1CCC2(CC1)CN(Cc1cccc(Oc3ccccc3Cl)c1)C2 [Example 9, 5-(Trifluoromethyl)pyridin-3-yl 2-(3-(2-chlorophenoxy)benzyl)-2,7-diazaspiro[3.5]nonane-7-carboxylate]
- IC50 (FAAH; read-out: FAAH (human) IC50): 100 to 1000 nM
- IC50 (MAGL; read-out: MAGL (human) IC50): 100 to 1000 nM

SMILES: Cc1c(C#N)cncc1OC(=O)N1CCN(Cc2cccc(C(F)(F)F)c2C)C[C@H]1C [Example 83, 5-Cyano-4-methylpyridin-3-yl (R)-2-methyl-4-(2-methyl-3-(trifluoromethyl)benzyl)piperazine-1-carboxylate]
- IC50 (FAAH): < 100 nM
- inhibition at 1 µM (FAAH): > 75%
- inhibition at 1 µM (MAGL): > 75%
- IC50 (MAGL; read-out: MAGL (human) IC50): 100 to 1000 nM

SMILES: O=C(Oc1cncc(C(F)(F)F)c1)N1CCC2(CC1)CN(Cc1cccc(Oc3ccc(Cl)cc3)c1)C2 [Example 31, 5-(Trifluoromethyl)pyridin-3-yl 2-(3-(4-chlorophenoxy)benzyl)-2,7-diazaspiro[3.5]nonane-7-carboxylate]
- IC50 (FAAH): < 100 nM
- IC50 (MAGL; read-out: MAGL (human) IC50): 100 to 1000 nM

SMILES: CC1CCCN1c1ccc(CN2CCN(C(=O)Oc3cncc(C(N)=O)c3)CC2)c(OC(F)(F)F)c1 (centres unmarked) [Example 17, 5-Carbamoylpyridin-3-yl 4-(4-(2-methylpyrrolidin-1-yl)-2-(trifluoromethoxy)benzyl)piperazine-1-carboxylate]
- inhibition at 1 µM (FAAH): > 75%
- IC50 (FAAH; read-out: FAAH (human) IC50): 100 to 1000 nM
- IC50 (MAGL): < 100 nM
- inhibition at 1 µM (MAGL): > 75%

SMILES: Cc1c(CN2CCN(C(=O)Oc3cncc(C(N)=O)c3)[C@@H](C)C2)cccc1C(F)(F)F [Example 59, (S)-5-Carbamoylpyridin-3-yl 2-methyl-4-(2-methyl-3-(trifluoromethyl)benzyl)piperazine-1-carboxylate]
- inhibition at 1 µM (FAAH): 50 to 75%
- inhibition at 1 µM (MAGL): > 75%

SMILES: N#Cc1cncc(OC(=O)N2CCN(Cc3cccc(Oc4ncccn4)c3)CC2)c1 [Example 50, 5-Cyanopyridin-3-yl 4-(3-(pyrimidin-2-yloxy)benzyl)piperazine-1-carboxylate]
- inhibition at 1 µM (FAAH): > 75%
- IC50 (FAAH; read-out: FAAH (human) IC50): 100 to 1000 nM
- IC50 (MAGL): < 100 nM
- inhibition at 1 µM (MAGL): > 75%

SMILES: O=C(Oc1cncc(C(F)(F)F)c1)N1CCC2(CC1)CN(Cc1cccc(Oc3ccc(C(F)(F)F)nc3)c1)C2 [Example 39, 5-(Trifluoromethyl)pyridin-3-yl 2-(3-((6-(trifluoromethyl)pyridin-3-yl)oxy)benzyl)-2,7-diazaspiro[3.5]nonane-7-carboxylate]
- inhibition at 1 µM (FAAH): > 75%
- IC50 (FAAH; read-out: FAAH (human) IC50): 100 to 1000 nM
- inhibition at 1 µM (MAGL): > 75%
- IC50 (MAGL; read-out: MAGL (human) IC50): 100 to 1000 nM

SMILES: O=C(Oc1cncc(C(F)(F)F)c1)N1CCC2(CC1)CN(Cc1cccc(Oc3ccnnc3)c1)C2 [Example 33, 5-(Trifluoromethyl)pyridin-3-yl 2-(3-(pyridazin-4-yloxy)benzyl)-2,7-diazaspiro[3.5]nonane-7-carboxylate]
- inhibition at 1 µM (FAAH): 25 to 50%
- inhibition at 1 µM (MAGL): 50 to 75%

SMILES: O=C(Oc1cncc(C(F)(F)F)c1)N1CCC2(CC1)CN(Cc1cccc(Oc3ccccc3)c1Cl)C2 [Example 41, 5-(Trifluoromethyl)pyridin-3-yl 2-(2-chloro-3-phenoxybenzyl)-2,7-diazaspiro[3.5]nonane-7-carboxylate]
- inhibition at 1 µM (FAAH): > 75%
- inhibition at 1 µM (MAGL): > 75%

SMILES: CC(C)Oc1cc(Cl)cc(CN2CC3(CCN(C(=O)Oc4cncc(C(F)(F)F)c4)CC3)C2)c1 [Example 24, 5-(Trifluoromethyl)pyridin-3-yl 2-(3-chloro-5-isopropoxybenzyl)-2,7-diazaspiro[3.5]nonane-7-carboxylate]
- inhibition at 1 µM (FAAH): > 75%
- inhibition at 1 µM (MAGL): > 75%

SMILES: C[C@@H]1CN(Cc2cccc(Oc3ncccn3)c2)CCN1C(=O)Oc1cncc(C#N)c1 [Example 84, 5-Cyanopyridin-3-yl (R)-2-methyl-4-(3-(pyrimidin-2-yloxy)benzyl)piperazine-1-carboxylate]
- inhibition at 1 µM (FAAH): > 75%
- IC50 (FAAH; read-out: FAAH (human) IC50): 100 to 1000 nM
- IC50 (MAGL): < 100 nM
- inhibition at 1 µM (MAGL): > 75%

SMILES: CC(C)Oc1cc(CN2CCN(C(=O)Oc3cncc(C(N)=O)c3)[C@@H](C)C2)ccc1Cl [Example 57, (S)-5-Carbamoylpyridin-3-yl 4-(4-chloro-3-isopropoxybenzyl)-2-methylpiperazine-1-carboxylate]
- inhibition at 1 µM (MAGL): > 75%
